According to the Kinase Knowledgebase extract (Sharma et al. 2016):

The compounds below were run against CDK2 (human) (UniProt P24941) (assay: Enzyme Assay).

Row | IC50 [µM] | Compound
1 | ≤ 10 | CCCC(=O)Nc1ccc(F)c(Cc2c[nH]c3ncc(-c4cccnc4)cc23)c1F
2 | ≤ 10 | OCCOc1ccc(F)c(Cc2c[nH]c3ncc(-c4cccnc4)cc23)c1F

Continued, compound first:

Row | Compound | IC50 [µM]
3 | CCCS(=O)(=O)Nc1ccc(F)c(C(=O)c2c[nH]c3ncc(OC)cc23)c1F | ≤ 10
4 | CCCS(=O)(=O)Nc1ccc(F)c(C(OC)c2c[nH]c3ncc(OC)cc23)c1F (stereo not drawn) | ≤ 10

These compounds were tested against MAPK14 (human) (UniProt Q16539) (assay: Inhibition of MAPK14 Kinase Activity).
Sequence of MAPK14 (human) (Q16539 whole entry, looked up): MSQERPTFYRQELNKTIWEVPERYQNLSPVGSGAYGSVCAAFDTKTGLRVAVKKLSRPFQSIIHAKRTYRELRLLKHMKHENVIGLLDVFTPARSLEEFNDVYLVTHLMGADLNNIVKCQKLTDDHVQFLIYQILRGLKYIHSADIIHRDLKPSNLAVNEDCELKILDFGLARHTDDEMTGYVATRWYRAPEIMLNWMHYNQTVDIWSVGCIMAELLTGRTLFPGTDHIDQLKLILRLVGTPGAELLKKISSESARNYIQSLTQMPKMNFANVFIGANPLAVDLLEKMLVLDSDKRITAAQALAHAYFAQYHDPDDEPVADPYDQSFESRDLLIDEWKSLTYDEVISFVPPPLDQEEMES

Row | IC50 [µM] | Compound
5 | ≤ 10 | Nc1cccc(-c2cnc3[nH]cc(C(=O)c4cc(O)ccc4F)c3c2)c1
6 | ≤ 10 | CC(=O)Nc1cccc(-c2cnc3[nH]cc(C(=O)c4cc(O)ccc4F)c3c2)c1
7 | ≤ 10 | CC(=O)Nc1cccc(-c2cnc3[nH]cc(C(=O)c4ccccc4F)c3c2)c1
8 | ≤ 10 | CS(=O)(=O)Nc1ccc(F)c(C(=O)c2c[nH]c3ncc(-c4cccc(C(N)=O)c4)cc23)c1F
9 | ≤ 10 | O=C(c1c(F)ccc(NCc2ccccc2)c1F)c1c[nH]c2ncc(-c3cccnc3)cc12
10 | ≤ 10 | CS(=O)(=O)Nc1cccc(-c2cnc3[nH]cc(C(=O)c4cc(O)ccc4F)c3c2)c1
11 | ≤ 10 | CS(=O)(=O)Nc1ccc(F)c(C(=O)c2c[nH]c3ncc(-c4ccccc4)cc23)c1F
12 | ≤ 10 | CS(=O)(=O)Nc1cccc(-c2cnc3[nH]cc(C(=O)c4c(F)ccc(NS(C)(=O)=O)c4F)c3c2)c1
13 | ≤ 10 | Cc1c(O)cccc1C(=O)c1c[nH]c2ncc(-c3cccnc3)cc12
14 | ≤ 10 | CS(=O)(=O)Nc1ccc(Cl)c(C(=O)c2c[nH]c3ncc(-c4cccnc4)cc23)c1F
15 | ≤ 10 | COc1cccc(C(=O)c2c[nH]c3ncc(-c4cccnc4)cc23)c1
16 | ≤ 10 | CCCS(=O)(=O)Nc1ccc(F)c(C(=O)c2c[nH]c3ncc(-c4ccccc4)cc23)c1F
17 | ≤ 10 | Nc1ccc(F)c(C(=O)c2c[nH]c3ncc(-c4cccnc4)cc23)c1F

Further lines, the compound ahead of its results:

Row | Compound | IC50 [µM]
18 | CCCS(=O)(=O)Nc1ccc(F)c(C(=O)c2c[nH]c3ncc(OC)cc23)c1F | ≤ 10
19 | Nc1cccc(-c2cnc3[nH]cc(C(=O)c4cccc(O)c4)c3c2)c1 | ≤ 10
20 | Nc1cccc(-c2cnc3[nH]cc(C(=O)c4cccc(O)c4F)c3c2)c1 | ≤ 10
21 | O=C(c1cccc(O)c1)c1c[nH]c2ncc(Nc3ccccc3)cc12 | ≤ 10
22 | CS(=O)(=O)Nc1cccc(-c2cnc3[nH]cc(C(=O)c4cccc(O)c4F)c3c2)c1 | ≤ 10
23 | COc1cccc(CCc2c[nH]c3ncc(-c4ccsc4)cc23)c1 | ≤ 10
24 | O=C(c1cccc(F)c1F)c1c[nH]c2nccc(-c3cc(F)cc(F)c3)c12 | ≤ 10
25 | Brc1ccc(C=Cc2c[nH]c3ncccc23)cc1 | ≤ 10
26 | O=C(c1cccc(O)c1)c1c[nH]c2ncc(Br)cc12 | ≤ 10
27 | O=C(c1c(F)ccc(NS(=O)(=O)c2ccccc2)c1F)c1c[nH]c2ncc(Br)cc12 | ≤ 10
28 | Nc1cccc(-c2cnc3[nH]cc(C(=O)c4cccc(Cl)c4Cl)c3c2)c1 | ≤ 10
29 | CS(=O)(=O)Nc1ccc(F)c(C(=O)c2c[nH]c3ncc(-c4cccc(S(C)(=O)=O)c4)cc23)c1 | ≤ 10
30 | O=C(c1ccccc1F)c1c[nH]c2ncc(-c3ccccn3)cc12 | ≤ 10
31 | O=S(=O)(NCc1c[nH]c2ncccc12)c1ccc(N2CCOCC2)nc1 | ≤ 10
32 | c1ccc2c(Cc3c[nH]c4ncccc34)cccc2c1 | ≤ 10
33 | CCCS(=O)(=O)Nc1ccc(F)c(C(=O)c2c[nH]c3ncc(Cl)cc23)c1F | ≤ 10
34 | Cc1nc(-c2ccnc3[nH]ccc23)no1 | ≤ 10
35 | O=C(O)C=Cc1cccc(-c2cnc3[nH]cc(C(=O)c4cc(O)ccc4F)c3c2)c1 | ≤ 10

What follows are compounds tested against EGFR (human) (UniProt P00533) (assay: not given).
Sequence of EGFR (human) (P00533 whole entry, looked up): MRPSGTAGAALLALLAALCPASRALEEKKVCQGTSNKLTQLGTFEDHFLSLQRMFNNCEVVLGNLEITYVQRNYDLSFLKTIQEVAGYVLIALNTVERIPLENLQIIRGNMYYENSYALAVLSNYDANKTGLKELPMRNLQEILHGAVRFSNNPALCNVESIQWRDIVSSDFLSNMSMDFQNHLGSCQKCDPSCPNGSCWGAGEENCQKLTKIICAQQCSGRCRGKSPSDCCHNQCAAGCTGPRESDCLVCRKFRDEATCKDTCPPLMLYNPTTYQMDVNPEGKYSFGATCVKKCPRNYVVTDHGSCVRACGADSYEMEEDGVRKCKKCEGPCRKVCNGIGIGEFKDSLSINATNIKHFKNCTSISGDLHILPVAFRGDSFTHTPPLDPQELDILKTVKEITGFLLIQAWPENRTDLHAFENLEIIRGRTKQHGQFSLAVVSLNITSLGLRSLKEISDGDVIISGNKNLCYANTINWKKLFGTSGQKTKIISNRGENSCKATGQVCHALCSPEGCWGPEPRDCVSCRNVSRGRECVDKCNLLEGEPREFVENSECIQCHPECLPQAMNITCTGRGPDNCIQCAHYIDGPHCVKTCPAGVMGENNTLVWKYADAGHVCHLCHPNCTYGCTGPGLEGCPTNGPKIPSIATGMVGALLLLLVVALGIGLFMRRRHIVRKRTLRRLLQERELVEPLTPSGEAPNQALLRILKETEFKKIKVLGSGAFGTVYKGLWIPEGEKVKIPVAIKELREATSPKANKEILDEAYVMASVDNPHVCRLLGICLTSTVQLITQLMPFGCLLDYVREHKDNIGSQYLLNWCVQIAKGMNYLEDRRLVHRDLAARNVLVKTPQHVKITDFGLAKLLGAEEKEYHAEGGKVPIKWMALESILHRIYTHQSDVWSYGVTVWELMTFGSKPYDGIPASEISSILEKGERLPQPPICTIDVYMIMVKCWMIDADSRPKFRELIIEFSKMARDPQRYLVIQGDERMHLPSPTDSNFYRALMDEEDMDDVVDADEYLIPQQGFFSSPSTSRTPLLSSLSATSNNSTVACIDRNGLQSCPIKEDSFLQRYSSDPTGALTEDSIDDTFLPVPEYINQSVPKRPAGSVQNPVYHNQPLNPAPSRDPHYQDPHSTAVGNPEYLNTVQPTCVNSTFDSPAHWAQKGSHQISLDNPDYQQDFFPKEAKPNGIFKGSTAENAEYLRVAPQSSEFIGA

Row | IC50 [µM] | Compound
36 | ≤ 10 | CCCS(=O)(=O)Nc1ccc(F)c(C(=O)c2c[nH]c3ncc(-c4ccc(OC)cc4)cc23)c1F
37 | ≤ 10 | O=C(Nc1ccc(F)c(C(O)c2c[nH]c3ncc(-c4cccnc4)cc23)c1F)OCc1ccccc1 (stereo not drawn)
38 | ≤ 10 | Nc1cccc(-c2cnc3[nH]cc(C(=O)c4cc(O)ccc4F)c3c2)c1
39 | ≤ 10 | CC(=O)Nc1cccc(-c2cnc3[nH]cc(C(=O)c4cc(O)ccc4F)c3c2)c1

The next lines start with the compound.

Row | Compound | IC50 [µM]
40 | Nc1cccc(-c2cnc3[nH]cc(C(=O)c4cccc(O)c4)c3c2)c1 | ≤ 10
41 | COc1ccc(-c2cnc3[nH]cc(C#Cc4ccccc4)c3c2)cc1OC | ≤ 10
42 | Nc1cccc(-c2cnc3[nH]cc(C(=O)c4cccc(O)c4F)c3c2)c1 | ≤ 10
43 | O=C(c1cccc(O)c1)c1c[nH]c2ncc(Nc3ccccc3)cc12 | ≤ 10
